Laboratory results published in patent US11465994B2, “MGluR7 agonist compounds for treating mGluR7-regulated diseases, disorders, or conditions” (Takeda Pharmaceutical Company Limited, priority 2016, dated 2022).

biological target: T1, mGluR7 (Homo sapiens, UniProt Q14831); test: cAMP CRE-luciferase reporter gene assay (Steady Glo) in CHO-CRE-luc cells stably expressing human mGluR7; format: cell-based; set-up: expressed in transfected cells; details: reduction of forskolin stimulated cAMP (luminescence); CHO CRE-luc human mGluR7; read-out: EC50
T1 sequence (Q14831 35-915): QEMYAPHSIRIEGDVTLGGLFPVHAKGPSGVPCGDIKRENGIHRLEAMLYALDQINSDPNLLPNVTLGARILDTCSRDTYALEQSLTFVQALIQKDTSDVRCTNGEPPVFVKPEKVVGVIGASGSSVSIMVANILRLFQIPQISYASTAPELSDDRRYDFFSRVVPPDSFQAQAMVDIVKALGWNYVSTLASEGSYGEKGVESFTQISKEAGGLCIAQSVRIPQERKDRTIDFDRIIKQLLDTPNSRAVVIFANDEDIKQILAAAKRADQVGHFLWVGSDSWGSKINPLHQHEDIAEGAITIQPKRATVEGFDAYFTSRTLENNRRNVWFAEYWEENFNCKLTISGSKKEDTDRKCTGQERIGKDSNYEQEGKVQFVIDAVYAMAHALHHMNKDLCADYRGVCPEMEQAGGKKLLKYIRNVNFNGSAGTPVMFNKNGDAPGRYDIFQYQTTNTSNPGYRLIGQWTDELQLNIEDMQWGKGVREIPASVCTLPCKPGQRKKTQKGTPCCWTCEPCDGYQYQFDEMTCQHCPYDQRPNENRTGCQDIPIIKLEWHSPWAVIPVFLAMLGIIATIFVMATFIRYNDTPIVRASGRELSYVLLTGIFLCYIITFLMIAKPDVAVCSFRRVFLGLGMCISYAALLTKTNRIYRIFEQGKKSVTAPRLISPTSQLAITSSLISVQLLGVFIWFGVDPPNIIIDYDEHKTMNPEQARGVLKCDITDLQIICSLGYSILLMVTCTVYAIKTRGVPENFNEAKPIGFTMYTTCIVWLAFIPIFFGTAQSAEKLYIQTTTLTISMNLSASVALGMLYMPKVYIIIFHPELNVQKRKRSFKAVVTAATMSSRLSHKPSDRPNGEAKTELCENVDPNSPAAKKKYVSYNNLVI
Protocol: Compound activities were determined in CHO-CRE-luc cells stably expressing hu/mo mGluR7, using a cAMP reporter gene assay (Steady Glo, Promega). Selectivity was assessed in stable CHO-mGluR4 cells (DiscoverX) and CHO-mGluR8 transients using an HTRF cAMP assay (Cisbio).
The ability of the test compounds to activate mGluR7 was determined by their ability to reduce forskolin stimulated cAMP production. Compounds were assessed in a CRE-directed luciferase reporter gene assay, using a stable CHO cell line expressing the CRE-luc reporter and human mGluR7 genes. In this cell line, production of cAMP stimulated the transcription of the luciferase gene and luciferase activity was then measured in a luminescent enzyme assay (Steady Glo assay; Promega E2550). Activation of mGluR7 decreased the forskolin stimulated luminescence signal.
The day prior to the assay, compounds were serially diluted in DMSO (100× final assay concentration (FAC)), in 384-well plates which were then stored in the dark at room temperature (RT) until use. Cells were seeded at 12.5 k/well in white, clear bottom 384-well plates (Corning 3707) and left for one hour at RT followed by an overnight incubation (37° C.). The following day, the DMSO compound plate was diluted 1:20 (5×FAC) in Opti-MEM I (Life Technologies 11058021). The growth media was removed from the cell plate and replaced with 15 μl Opti-MEM I, followed by a 5 μl addition from the 5× compound plate and a fifteen minute incubation (37° C.). Forskolin (Sigma F3917) was then added to the wells (5 μl of 2.5 μM) and the plate was incubated for five hours (37° C.). During this incubation, the Steady Glo Substrate reagent was warmed to 37° C. Aliquots (11 ml; stored at −20° C.) of this reagent were prepared by dissolving the contents of 1 vial of lyophilised substrate in 100 ml Steady-Glo buffer. A 25 μl addition of the substrate was made to all wells and the plate was incubated for thirty minutes at RT, on a plate shaker (300 rpm; in the dark). Luminescence was then measured using the EnVision Multilabel Reader (Perkin Elmer).
Compound activity was examined using a 10-point, half log concentration-response range and each concentration was tested in duplicate wells. Luminescence values were normalised to ‘maximum’ (forskolin alone) and ‘minimum’ (forskolin in the presence of tool mGluR7 agonist) controls.

| EC50 [nM] | Structure (SMILES) |
| --- | --- |
| 8 | CO[C@@H]1c2ccccc2OC[C@H]1NC(=O)C1c2ccccc2CC(=O)N1Cc1ccccn1 (relative stereo) [Example 29, N-((trans)-4-methoxy-3,4-dihydro-2H-1-benzopyran-3-yl)-3-oxo-2-[(pyridin-2-yl)methyl]-1,2,3,4-tetrahydroisoquinoline-1-carboxamide] |
| 14 | CO[C@@H]1c2ccccc2OC[C@H]1NC(=O)C1c2ccccc2CC(=O)N1CC1CCOCC1 (relative stereo) [Example 28, N-((trans)-4-methoxy-3,4-dihydro-2H-1-benzopyran-3-yl)-2-[(oxan-4-yl)methyl]-3-oxo-1,2,3,4-tetrahydroisoquinoline-1-carboxamide] |
| 110 | CNC1c2ccccc2OCC1NC(=O)[C@@H](C)c1ccc(F)cc1 (single isomer, unassigned) [Example 23] |
| 860 | C[C@H](C(=O)NC1COc2ccccc2C1=O)c1ccccc1 (stereo partly drawn) [Example 4, (2S)—N-(4-oxo-3,4-dihydro-2H-1-benzopyran-3-yl)-2-phenylpropanamide] |
| 10 | C[C@H](C(=O)NC1COc2ccccc2C1S(C)(=O)=O)c1ccc(Cl)cc1 (single isomer, unassigned) [Example 20] |
| 300 | CO[C@@H]1c2ccccc2OC[C@H]1NC(=O)C(c1ccc(F)cc1F)n1ccccc1=O (relative stereo) [Example 32, 2-(2,4-difluorophenyl)-N-((trans)-4-methoxy-3,4-dihydro-2H-1-benzopyran-3-yl)-2-(2-oxo-1,2-dihydropyridin-1-yl)acetamide] |
| 33 | C[C@H](C(=O)NC1COc2ccccc2C1N1CCC1)c1ccc(F)cc1 (single isomer, unassigned) [Example 36] |
| 23 | COC1c2ccccc2OCC1NC(=O)[C@@H]1c2ccccc2CC(=O)N1CCCF (single isomer, unassigned) [Example 26] |
| 7 | C[C@H](C(=O)NC1COc2ccccc2C1S(C)(=O)=O)c1ccccc1 (single isomer, unassigned) [Example 12] |
| 68 | C[C@H](C(=O)NC1COc2ccccc2C1O)c1ccccc1 (single isomer, unassigned) [Example 5] |
| 65 | CNC1c2ccccc2OCC1NC(=O)[C@@H](C)c1ccccc1 (stereo in doubt) [Example 14, (2S)—N-[(trans)-4-(methylamino)-3,4-dihydro-2H-1-benzopyran-3-yl]-2-phenylpropanamide] |
| 11 | CO[C@@H]1c2ccccc2OC[C@H]1NC(=O)C(OCC1CC1)c1ccc(F)cc1 (relative stereo) [Example 30, 2-(cyclopropylmethoxy)-2-(4-fluorophenyl)-N-((trans)-4-methoxy-3,4-dihydro-2H-1-benzopyran-3-yl)acetamide] |
| 97 | CNC(=O)c1ccccc1C(=O)NC1c2ccccc2OCC1NC(=O)[C@@H](C)c1ccc(F)cc1 (single isomer, unassigned) [Example 34] |
| 55 | C[C@H](C(=O)NC1COc2ccccc2C1N(C)C)c1ccc(F)cc1 (single isomer, unassigned) [Example 37] |
| 700 | CNC(=O)c1ccccc1C(=O)NC1c2ccccc2OCC1NC(=O)[C@@H](C)c1ccc(F)cc1 (single isomer, unassigned) [Example 33] |
| 911 | C[C@H](C(=O)NC1COc2ccccc2C1(C)O)c1ccccc1 (single isomer, unassigned) [Example 7] |
| 101 | C[C@H](C(=O)NC1COc2ccccc2C1O)c1ccccc1 (single isomer, unassigned) [Example 6] |
| 20 | CO[C@@H]1c2ccccc2OC[C@H]1NC(=O)C(c1ccc(F)cc1)N1CC(OC(F)(F)F)C1 (relative stereo) [Example 24, 2-(4-fluorophenyl)-N-((trans)-4-methoxy-3,4-dihydro-2H-1-benzopyran-3-yl)-2-[3-(trifluoromethoxy)azetidin-1-yl]acetamide] |

| EC50 [nM] | Structure (SMILES) |
| --- | --- |
| 26 | C[C@H](C(=O)NC1COc2ccccc2C1S(C)(=O)=O)c1ccccc1 (single isomer, unassigned) [Example 13] |
| 874 | C[C@H](C(=O)NC1COc2ccccc2C1O)c1ccccc1 (single isomer, unassigned) [Example 1] |
| 1650 | CNC1c2ccccc2OCC1NC(=O)[C@@H](C)c1ccccc1 (single isomer, unassigned) [Example 10] |
| 22 | COC1c2ccccc2OCC1NC(=O)[C@@H]1c2ccccc2CC(=O)N1CCCF (single isomer, unassigned) [Example 27] |
| 96 | C[C@H](C(=O)NC1COc2ccccc2C1O)c1ccccc1 (single isomer, unassigned) [Example 2] |
| 30 | C[C@H](C(=O)NC1COc2ccccc2C1N1CCC(F)(F)C1)c1ccc(F)cc1 (single isomer, unassigned) [Example 38] |
| 1200 | C[C@H](C(=O)NC1COc2ccc(F)cc2C1O)c1ccccc1 (stereo in doubt) [Example 3, (2S)—N-((cis)-6-fluoro-4-hydroxy-3,4-dihydro-2H-1-benzopyran-3-yl)-2-phenylpropanamide] |
| 23 | C[C@H](C(=O)NC1COc2ccccc2C1N1CCOCC1)c1ccc(F)cc1 (single isomer, unassigned) [Example 39] |
| 14 | COC1c2ccccc2OCC1NC(=O)[C@@H]1c2ccccc2CC(=O)N1CC1CC1 (stereo in doubt) [Example 15, (1S)-2-(cyclopropylmethyl)-N-((trans)-4-methoxy-3,4-dihydro-2H-1-benzopyran-3-yl)-3-oxo-1,2,3,4-tetrahydroisoquinoline-1-carboxamide] |
| 15 | COC1c2ccccc2OCC1NC(=O)[C@@H]1c2ccccc2CC(=O)N1CC1CC1 (single isomer, unassigned) [Example 18] |
| 33 | C[C@H](C(=O)NC1COc2ccccc2C1S(C)(=O)=O)c1ccc(Cl)cc1 (single isomer, unassigned) [Example 21] |
| 274 | C[C@H](C(=O)NC1COc2ccccc2C1(C)O)c1ccccc1 (single isomer, unassigned) [Example 8] |
| 55 | COC1c2ccccc2OCC1NC(=O)[C@@H](C)c1ccccc1 (single isomer, unassigned) [Example 11] |
| 69 | CNC1c2ccccc2OCC1NC(=O)[C@@H](C)c1ccc(F)cc1 (single isomer, unassigned) [Example 22] |
| 27 | CO[C@@H]1c2ccccc2OC[C@H]1NC(=O)C(c1ccc(F)cc1F)N1CC(OC(F)(F)F)C1 (relative stereo) [Example 25, 2-(2,4-difluorophenyl)-N-((trans)-4-methoxy-3,4-dihydro-2H-1-benzopyran-3-yl)-2-[3-(trifluoromethoxy)azetidin-1-yl]acetamide] |
| 6 | COC1c2ccccc2OCC1NC(=O)[C@@H]1c2ccccc2CC(=O)N1CC1CC1 (single isomer, unassigned) [Example 19] |
| 4990 | CNC1c2ccccc2OCC1NC(=O)[C@@H](C)c1ccccc1 (single isomer, unassigned) [Example 9] |
| 54 | CO[C@@H]1c2ccccc2OC[C@H]1NC(=O)C(Oc1ccnc(C)n1)c1ccc(F)cc1F (relative stereo) [Example 31, 2-(2,4-difluorophenyl)-N-((trans)-4-methoxy-3,4-dihydro-2H-1-benzopyran-3-yl)-2-[(2-methylpyrimidin-4-yl)oxy]acetamide] |

| Structure (SMILES) | EC50 [nM] |
| --- | --- |
| C[C@H](C(=O)NC1COc2ccccc2C1S(C)(=O)=O)c1ccc(F)cc1 (single isomer, unassigned) [Example 17] | 28 |
| C[C@H](C(=O)NC1COc2ccccc2C1N1CCCC1)c1ccc(F)cc1 (single isomer, unassigned) [Example 35] | 62 |

biological target: T1, mGluR7; test: Kinetic impedance assay (desensitization) in stable CHO-mGluR7 cells, response to tool activator CPD A after pre-treatment; format: cell-based; details: pre-treatment 1 hour (EC80), FIG. 1B
Protocol: Stable CHO-mGluR7 cells (DiscoverX) were pre-incubated with compounds (EC80, 1 h), washed and after 30 min, impedance changes upon addition of a tool mGluR7 activator (CPD A) were determined (Cellkey, Molecular Devices).

| Structure (SMILES) | EC50 of subsequent response to CPD A increased [fold] |
| --- | --- |
| Cl.Cl.c1ccc(C(NCCNC(c2ccccc2)c2ccccc2)c2ccccc2)cc1 [AMN082, N,N′-dibenzhydrylethane-1,2-diamine dihydrochloride] | 5 |

same assay, conditions: pre-treatment 1 hour (EC80), FIG. 1B; read-out: Emax of subsequent response to CPD A reduced by

| Structure (SMILES) | Emax [%] |
| --- | --- |
| Cl.Cl.c1ccc(C(NCCNC(c2ccccc2)c2ccccc2)c2ccccc2)cc1 [AMN082, N,N′-dibenzhydrylethane-1,2-diamine dihydrochloride] | 75 |
